Here are results for 1 compound from patent publication US9433607B2, “Composition for prevention or treatment of cancer comprising N-methylenenaphtho[2,1-b]furan-2-carbohydrazide derivatives as an active ingredient” (KOREA RESEARCH INSTITUTE OF BIOSCIENCE AND BIOTECHNOLOGY, priority 2012, dated 2016).

pIC50: −log10 of the molar value.

Experiment [1] has as its system Cdc25C, Cyclin B1, and Plk1 (Polo-like kinase 1). Briefly: Immunoblotting of proteins regulating cell division. The experiment is classed as cell-based. As to conditions: HeLa cells, 17 hours. From the text:
The effect of ethyl(2-methyl-3{(E)-[(naphtho[2,1-b]furan-2-ylcarbonyl)hydrazono]methyl}-1H-indole-1-yl)acetate on Cdc25C, Cyclin B1, and Plk1 (Polo-like kinase 1), the proteins regulating cell division, was investigated. When Cdc25C is activated in the course of cell division, Cdc25C is hyperphosphorylated so that its movement on SDS-PAGE is slowed down. Based on that principal, Cdc25C activation was investigated. Referring that the expressions of Cyclin B1 and Plk1 are differently regulated in each stage of cell cycle, the expression of each protein was measured. The levels of Cyclin B1 and Plk1 were the lowest in G1 phase.
HeLa cells were treated with DMSO, nocodazole (NOC), or ethyl(2-methyl-3{(E)-[(naphtho[2,1-b]furan-2-ylcarbonyl)hydrazono]methyl}-1H-indole-1-yl)acetate for 17 hours. The cells were harvested, followed by immunoblotting using cyclin B1, Cdc25C, Plk1, and GAPDH specific antibodies. GAPDH was used as a loading control.

The next experiment has as its system K562. Briefly: Cytotoxicity MTT assay, K562. Conditions: Homo sapiens, 96 h, 4 days. The experiment is classed as cell-based. As for the experimental part:
(§1) Particularly, K562, MCF7 (Bio-Evaluation Center, Korea Research Institute of Bioscience and Biotechnology, Korea), and the multi-drug resistant cell lines thereof, K562/ADR and MCF7/ADR (Bio-Evaluation Center, Korea Research Institute of Bioscience and Biotechnology, Korea) were cultured in microtiter plate (1-3×10^3 cells/well). Then, the cells were treated with ethyl(2-methyl-3{(E)-[(naphtho[2,1-b]furan-2-ylcarbonyl)hydrazono]methyl}-1H-indole-1-yl)acetate, doxorubicin, or taxol, followed by culture for 4 days. Cytotoxicity was investigated by MTT assay by the same manner as described in Example <1-2>. IC50 was calculated by long-dose response curve. The data presents the mean value obtained from the assay performed in triplicate (Table 3).

The subject of a further experiment is SNU-484. Put plainly: Anti-proliferative MTT assay, SNU-484. The experiment is classed as cell-based. Conditions: 96 h, SNU-484, Stomach, 4 days. As for the experimental part: (§2) Various cancer cell lines (rectal cancer, prostate cancer, breast cancer, lung cancer, stomach cancer, liver cancer, leukemia, brain cancer, and glioma cell lines) were cultured in microtiter plate (1-3×10^3 cells/well), to which ethyl(2-methyl-3{(E)-[(naphtho[2,1-b]furan-2-ylcarbonyl)hydrazono]methyl}-1H-indole-1-yl)acetate was treated. The culture continued for 4 days. Cytotoxicity was investigated by MTT assay by the same manner as described in Example <1-2>. IC50 was calculated by long-dose response curve. The data presents the mean value obtained from the assay performed in triplicate.

Another experiment concerns MCF7. Briefly: Cytotoxicity MTT assay, MCF7. The experiment is classed as cell-based. As to conditions: Homo sapiens, 96 h, 4 days. As for the experimental part: as §1
In the next experiment the test system is NCl-H460. Briefly: Anti-proliferative MTT assay, NCl-H460. The experiment is classed as cell-based. As to conditions: 96 h, NCl-H460, Lung, 4 days. As for the experimental part:
as §2

The subject of another experiment is A549. Put plainly: Anti-proliferative MTT assay, A549. The experiment is classed as cell-based. Conditions: Homo sapiens, 96 h, A549, Lung, 4 days. As for the experimental part:
as §2

The next experiment has as its system HepG2. Briefly: Anti-proliferative MTT assay, HepG2. The experiment is classed as cell-based. Conditions: Homo sapiens, 96 h, HepG2, Liver, 4 days. As for the experimental part: as §2
The next experiment has as its system Hep3B. Put plainly: Anti-proliferative MTT assay, Hep3B. The experiment is classed as cell-based. Conditions: Homo sapiens, 96 h, Liver, 4 days. The method, then: as §2
The test system of another experiment is SNB-75. Put plainly: Anti-proliferative MTT assay, SNB-75. The experiment is classed as cell-based. As to conditions: Homo sapiens, 96 h, SNB-75, Brain, 4 days. As for the experimental part: as §2
The subject of a further experiment is HeLa cell line. Put plainly: Anti-proliferative activity in HeLa cells (MTT assay). The experiment is classed as cell-based. As to conditions: Homo sapiens. The method, then: Particularly, HeLa cell line (ATCC, USA) was treated with the compounds of Table 1 respectively, and then IC50 (the half maximal inhibitory concentration) was investigated (Table 1).
HeLa cells were treated with 100 nM, 250 nM, 500 nM and 1 μM of ethyl(2-methyl-3{(E)-[(naphtho[2,1-b]furan-2-ylcarbonyl)hydrazono]methyl}-1H-indole-1-yl)acetate or DMSO for 4 days. Then, the cell growth was confirmed by MTT assay. All the obtained numbers were calculated by normalizing the value of Day 0. The data presents the mean value obtained from the assay performed in triplicate.
Particularly, HeLa cells were distributed in a 96-well plate at the density of 2×10^3 cells/well. The cells were treated with DMSO or the compound of the present invention, to which MTT reagent was added at the concentration of 10 μl/well. 2 hours later, OD450 was measured, which became the value of Day 0. 4 days later, MTT reagent was added thereto again. 2 hours later, OD450 was measured. The data presents the mean value obtained from the assay performed in triplicate.

Another experiment deals with HCT116. Briefly: Anti-proliferative MTT assay, HCT116. As to conditions: Homo sapiens, HCT-116, 96 h, HCT116, Large intestine, 4 days. The experiment is classed as cell-based. As for the experimental part: as §2
For a further experiment, the system named is MDA-MB-231. Briefly: Anti-proliferative MTT assay, MDA-MB-231. As to conditions: Homo sapiens, 96 h, MDA-MB-231, Breast, 4 days. The experiment is classed as cell-based. The method, then: as §2
Another experiment deals with MCF7/ADR. Briefly: Cytotoxicity MTT assay, multi-drug resistant MCF7/ADR. The experiment is classed as cell-based. The method, then:
as §1
(§3) The resistance factor of the multi-drug resistant cell line indicates the ratio of IC50 of the multi-drug resistant cell line to IC50 of the parent cell line showing no resistance, which was presented as a number in the bracket.

Experiment [2] concerns Various cancer cell lines. Briefly: Anti-proliferative MTT assay, various cancer cell lines (summary). The experiment is classed as cell-based. Conditions: 96 h, range over the cell lines, 4 days, read-out: IC50 across cancer cell lines. The method, then:
as §2

A further experiment deals with A-172. Briefly: Anti-proliferative MTT assay, A-172. The experiment is classed as cell-based. Conditions: Homo sapiens, 96 h, A-172, Brain, 4 days. The method, then:
as §2

The next experiment concerns K562/ADR. Briefly: Cytotoxicity MTT assay, multi-drug resistant K562/ADR. The experiment is classed as cell-based. The method, then: as §1, §3
The subject of a further experiment is PC-3. Briefly: Anti-proliferative MTT assay, PC-3. The experiment is classed as cell-based. As to conditions: Homo sapiens, 96 h, PC-3, Prostate, 4 days. The method, then:
as §2

A further experiment concerns SNU-601. Briefly: Anti-proliferative MTT assay, SNU-601. The experiment is classed as cell-based. Conditions: 96 h, SNU-601, Stomach, 4 days. As for the experimental part: as §2
A further experiment deals with purified tubulin. Briefly: In vitro tubulin polymerization, degree of turbidity. The experiment is classed as biochemical. Conditions: 5 μM, purified tubulin and GTP, 340 nm. The method, then:
To measure the polymerization of tubulin in vitro, the buffer containing the purified tubulin and GTP was treated with ethyl(2-methyl-3{(E)-[(naphtho[2,1-b]furan-2-ylcarbonyl)hydrazono]methyl}-1H-indole-1-yl)acetate at the concentration of 5 μM. DMSO, and the equivalent Taxol and vinblastine were used as the controls. The polymerization of tubulin into microtubules was determined if the degree of turbidity was 340 nm.

Take `CCOC(=O)Cn1c(C)c(/C=N/NC(=O)c2cc3c(ccc4ccccc43)o2)c2ccccc21` [STK899704]: the “effect on Cdc25C, cyclin B1 and Plk1 (immunoblotting)” value in experiment [1] is “Cdc25C was phosphorylated and cyclin B1 and Plk1 were accumulated”. The pIC50 with K562 was 6.35; in the experiment with SNU-484 it was 6.66; with MCF7 it was 2.97; in the experiment with NCl-H460 it was 6.09; with A549, 6.07; in the experiment on HepG2, 6.09. Moreover, the pIC50 in the experiment on Hep3B was 6.17; in the experiment on SNB-75, 6.23; in the experiment on HeLa cell line (96 h, HeLa, Cervix, MTT, 4 days), 6.59; with HeLa cell line (HeLa cell line), 6.59; with HCT116 it was 6.14; in the experiment with MDA-MB-231, 6.27. The pIC50 in the experiment on MCF7/ADR (Homo sapiens, NCI/ADR-RES, 96 h, MCF7/ADR, MTT, 4 days) was 3.65; in experiment [2], 5.97 to 6.66; in the experiment on A-172, 6.22; in the experiment with K562/ADR (Homo sapiens, 96 h, K562/ADR, MTT, 4 days), 3.55; in the experiment with PC-3, 6.19; in the experiment on SNU-601, 6.11. In addition, the “resistance factor (number in the bracket)” value in the experiment with MCF7/ADR (ratio of IC50 of MCF7/ADR to IC50 of parent MCF7) is on record as 0.2; in the experiment with K562/ADR (ratio of IC50 of K562/ADR to IC50 of parent K562), 0.6. The “degree of turbidity (tubulin polymerization) compared with Taxol” value with purified tubulin is given as “the degree of turbidity was lower”.
